Assay results as given in ChEMBL document CHEMBL4000244, “Probing A-form DNA: A fluorescent aminosugar probe and dual recognition by anthraquinone-neomycin conjugates” (Bioorg Med Chem, 2017).
Calls of active or inactive are those of the source. The calls are words filed in the database; no cut-off is given here.

Columns and labels:
[1] = Binding affinity to 5'-GGCCCCGG-3' DNA hairpin assessed as change in fluorescence intensity at 1 uM after 45 mins by fluorescence quenching analysis relative to control
[2] = Binding affinity to 5'-CCGCCGGG-3' DNA hairpin assessed as change in fluorescence intensity at 1 uM after 45 mins by fluorescence quenching analysis relative to control
[3] = Binding affinity to 5'-CCCCCGGG-3' DNA hairpin assessed as change in fluorescence intensity at 1 uM after 45 mins by fluorescence quenching analysis relative to control
[4] = Binding affinity to 5'-GCCCCCCC-3' DNA hairpin assessed as change in fluorescence intensity at 1 uM after 45 mins by fluorescence quenching analysis relative to control
[5] = Binding affinity to 5'-CGGGGGCC-3' DNA hairpin assessed as change in fluorescence intensity at 1 uM after 45 mins by fluorescence quenching analysis relative to control
[6] = Binding affinity to 5'-CCCGCGCG-3' DNA hairpin assessed as change in fluorescence intensity at 1 uM after 45 mins by fluorescence quenching analysis relative to control
[7] = Binding affinity to 5'-GGGGGCCG-3' DNA hairpin assessed as change in fluorescence intensity at 1 uM after 45 mins by fluorescence quenching analysis relative to control
[8] = Binding affinity to 5'-CGGCGCGG-3' DNA hairpin assessed as change in fluorescence intensity at 1 uM after 45 mins by fluorescence quenching analysis relative to control
[9] = Binding affinity to 5'-CCCCGGGC-3' DNA hairpin assessed as change in fluorescence intensity at 1 uM after 45 mins by fluorescence quenching analysis relative to control
[10] = Binding affinity to 5'-GGCGCGGC-3' DNA hairpin assessed as change in fluorescence intensity at 1 uM after 45 mins by fluorescence quenching analysis relative to control
[11] = Binding affinity to 5'-GCCGCCCC-3' DNA hairpin assessed as change in fluorescence intensity at 1 uM after 45 mins by fluorescence quenching analysis relative to control
[12] = Binding affinity to 5'-CCGGCGCG-3' DNA hairpin assessed as change in fluorescence intensity at 1 uM after 45 mins by fluorescence quenching analysis relative to control
[13] = Binding affinity to 5'-CCGGGGGC-3' DNA hairpin assessed as change in fluorescence intensity at 1 uM after 45 mins by fluorescence quenching analysis relative to control
[14] = Binding affinity to 5'-GGCGCCGG-3' DNA hairpin assessed as change in fluorescence intensity at 1 uM after 45 mins by fluorescence quenching analysis relative to control
[15] = Binding affinity to 5'-CGCGGGCC-3' DNA hairpin assessed as change in fluorescence intensity at 1 uM after 45 mins by fluorescence quenching analysis relative to control
[16] = Binding affinity to 5'-CCGGGGCC-3' DNA hairpin assessed as change in fluorescence intensity at 1 uM after 45 mins by fluorescence quenching analysis relative to control
[17] = Binding affinity to 5'-GCGGCGCC-3' DNA hairpin assessed as change in fluorescence intensity at 1 uM after 45 mins by fluorescence quenching analysis relative to control
[18] = Binding affinity to 5'-GGGGGCGC-3' DNA hairpin assessed as change in fluorescence intensity at 1 uM after 45 mins by fluorescence quenching analysis relative to control
[19] = Binding affinity to 5'-CGCGCGCG-3' DNA hairpin assessed as change in fluorescence intensity at 1 uM after 45 mins by fluorescence quenching analysis relative to control
[20] = Binding affinity to 5'-GGGGGGCC-3' DNA hairpin assessed as change in fluorescence intensity at 1 uM after 45 mins by fluorescence quenching analysis relative to control
[21] = Binding affinity to d(G4C4)2 DNA major groove assessed as stabilization of A-from DNA conformation by measuring induction of sharper band at 265 nanometer at drug:DNA molar ratio of 1:1 after 30 mins by CD spectroscopic method
[22] = Binding affinity to 5'-CGCCGCCC-3' DNA hairpin assessed as change in fluorescence intensity at 1 uM after 45 mins by fluorescence quenching analysis relative to control
[23] = Binding affinity to 5'-CCGCCGCC-3' DNA hairpin assessed as change in fluorescence intensity at 1 uM after 45 mins by fluorescence quenching analysis relative to control
[24] = Binding affinity to 5'-CGGGCGCG-3' DNA hairpin assessed as change in fluorescence intensity at 1 uM after 45 mins by fluorescence quenching analysis relative to control
[25] = Binding affinity to 5'-GGGCCCGG-3' DNA hairpin assessed as change in fluorescence intensity at 1 uM after 45 mins by fluorescence quenching analysis relative to control
[26] = Binding affinity to 5'-CGGGCGGC-3' DNA hairpin assessed as change in fluorescence intensity at 1 uM after 45 mins by fluorescence quenching analysis relative to control
[27] = Binding affinity to d(G4C4)2 DNA major groove assessed as change in electrostatic potential at 10 uM at pH 4.65 to 9.78 by UV-Visible spectrophotometric method
[28] = Binding affinity to 5'-CCCGCGGC-3' DNA hairpin assessed as change in fluorescence intensity at 1 uM after 45 mins by fluorescence quenching analysis relative to control
[29] = Binding affinity to 5'-GCGGCCGG-3' DNA hairpin assessed as change in fluorescence intensity at 1 uM after 45 mins by fluorescence quenching analysis relative to control
[30] = Binding affinity to 5'-CGGCGCCG-3' DNA hairpin assessed as change in fluorescence intensity at 1 uM after 45 mins by fluorescence quenching analysis relative to control
[31] = Binding affinity to 5'-CCCCCGGC-3' DNA hairpin assessed as change in fluorescence intensity at 1 uM after 45 mins by fluorescence quenching analysis relative to control
[32] = Binding affinity to 5'-CCCCGGCC-3' DNA hairpin assessed as change in fluorescence intensity at 1 uM after 45 mins by fluorescence quenching analysis relative to control
[33] = Binding affinity to 5'-GCCGGCGC-3' DNA hairpin assessed as change in fluorescence intensity at 1 uM after 45 mins by fluorescence quenching analysis relative to control
[34] = Binding affinity to 5'-GGCCCCGC-3' DNA hairpin assessed as change in fluorescence intensity at 1 uM after 45 mins by fluorescence quenching analysis relative to control
[35] = Binding affinity to 5'-CGGCCGCG-3' DNA hairpin assessed as change in fluorescence intensity at 1 uM after 45 mins by fluorescence quenching analysis relative to control
[36] = Binding affinity to 5'-CCGGCGCC-3' DNA hairpin assessed as change in fluorescence intensity at 1 uM after 45 mins by fluorescence quenching analysis relative to control

Work on `NCC1O[C@H](O[C@H]2[C@@H](O)[C@H](O[C@@H]3[C@@H](O)[C@H](N)C[C@H](N)[C@H]3O[C@H]3O[C@H](CN)[C@@H](O)[C@H](O)[C@H]3N)O[C@@H]2CSCCNC(=O)CCSCC(=O)Nc2ccc(-c3c4ccc(=O)cc-4oc4cc(O)ccc34)c(C(=O)O)c2)[C@H](N)[C@@H](O)[C@@H]1O` (stereo partly specified) yielded an Activity [1] of 20.2%, an Activity [2] of 43.7% and an Activity [3] of 35.1%. For the same compound, the Activity [4] was 10.1%, the Activity [5] was 38.1% and the Activity [6] was 51.8%. For the same compound, the Activity [7] was 29.9%, the Activity [8] was 43.2% and the Activity [9] was 43%. The Activity [10] was 49.4%, the Activity [11] was 48.5% and the Activity [12] was 45.4%. For the same compound, the Activity [13] was 38.4%, the Activity [14] was 53.2% and the Activity [15] was 44.3%. It also gave an Activity [16] of 37.6%, an Activity [17] of 49.9% and an Activity [18] of 35.6%. The Activity [19] was 43.6%, the Activity [20] was 32.2% and the Activity [21] was “Active”. The Activity [22] was 44.6%, the Activity [23] was 52.2% and the Activity [24] was 48.7%. The Activity [25] was 25.4%, the Activity [26] was 45.1% and the Activity [27] was -1.01 kT/e. For the same compound, the Activity [28] was 45.4%, the Activity [29] was 40.9% and the Activity [30] was 42.9%. For the same compound, the Activity [31] was 33.7%, the Activity [32] was 37.6% and the Activity [33] was 51.9%. It also gave an Activity [34] of 21.3%, an Activity [35] of 48.6% and an Activity [36] of 48.9%.
